The record followed here is PMC10683472, “Deep Learning-Driven Library Design for the De Novo Discovery of Bioactive Thiopeptides” (ACS Central Science, 2023).

Read-outs that look alike come from different tables or passages of the source. *1 amine or outer side, *2 acyl side, *3 side chain or, on linkers, in order; H or OH if unused. Where a SMILES comes first, the peptide text is derived from it. Where no end group is shown, it is not given here. [ ]: non-standard residue; d: D form. hGln = L-homoglutamine, NC(=O)CCC[C@H](N[*:1])C(=O)[*:2]; pyridine‑bisazole = not defined here; Nle = CCCC[C@H](N)C(=O)O; Dhb = C/C=C(\N)C(=O)O

One series is described as follows: Serum stability assay. In kind it is in vitro ADME. To be noted: human serum, 37 °C, LC/MS; for half-life at 10 µM: pH 7.6, read-out: serum stability τ1/2 (converted).
The target in series [1] is T1, IRAK4 (Homo sapiens, UniProt Q9NWZ3).
T1 sequence (Q9NWZ3 1-460): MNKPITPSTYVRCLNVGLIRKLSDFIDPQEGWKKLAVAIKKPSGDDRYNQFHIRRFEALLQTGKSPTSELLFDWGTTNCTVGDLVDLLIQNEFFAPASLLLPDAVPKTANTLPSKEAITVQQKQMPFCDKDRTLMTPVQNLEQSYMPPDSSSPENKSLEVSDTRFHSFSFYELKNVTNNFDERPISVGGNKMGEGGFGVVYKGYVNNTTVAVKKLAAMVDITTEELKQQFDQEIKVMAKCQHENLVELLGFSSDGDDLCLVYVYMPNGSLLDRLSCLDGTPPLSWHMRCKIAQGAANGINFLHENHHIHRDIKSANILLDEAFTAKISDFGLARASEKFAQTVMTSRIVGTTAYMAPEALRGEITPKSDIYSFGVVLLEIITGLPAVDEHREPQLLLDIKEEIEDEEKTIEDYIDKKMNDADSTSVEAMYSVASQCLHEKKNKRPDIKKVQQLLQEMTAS
In words: biochemical.

For series [2], the target named is T1, IRAK4. In words: Single-round mRNA display binding assay (qPCR), IRAK4. Also on record: acids 1-460; NP_057207.2) was purchased from Carna Biosciences; purchased Carna Biosciences (Kobe, Japan). The note with it: ratio of cDNA recoveries (qPCR), IRAK4 pulldown over beads only, single-round selection. For orientation: Real-time PCR tracks product formation cycle by cycle.

Series [3] concerns the target T2, Biotinylated IRAK4 (kinase domain, amino acids 1-460; NP_057207.2) (Homo sapiens, UniProt Q9NWZ3).
T2 construct: acids 1-460; NP_057207.2) was purchased from Carna Biosciences; purchased Carna Biosciences (Kobe, Japan)
T2 sequence (Q9NWZ3 1-460): T1 sequence (Q9NWZ3 1-460)
The series is described as follows: Surface plasmon resonance binding to IRAK4. From the text:
Reagents were purchased from Nacalai Tesque, Wako Pure Chemical Industries, Sigma-Aldrich Japan, or TCI Chemicals and were used as received. Biotinylated IRAK4 (kinase domain, amino acids 1-460; NP_057207.2) was purchased from Carna Biosciences (Kobe, Japan). Recombinant human TLR10 Fc Chimera protein (extracellular domain, amino acid 20-576; Q9BXR5) was purchased from R&D system (#6619-TR-050). Anti-HA magnetic beads were from Pierce Thermo Fisher Scientific (#88836). Magnetic beads with immobilized streptavidin were from Invitrogen (Dynabeads Streptavidin C1, # 65001). Magnetic beads with immobilized streptavidin were from Invitrogen (Dynabeads Streptavidin M280, #11206D).
Protein purification and synthesis of Streptomyces lactacystinaeus tRNAGlu were done as previously described.1–3 Protein concentration measurements were carried out on a Nanodrop 2000c spectrophotometer (Thermo Scientific) equipped with a 5 mm pathlength quartz cuvette using extinction coefficient values calculated with ExPASy ProtParam tool (https://web.expasy.org/protparam).
Biochemical measurements (sections 2.10 – 2.14) were performed in triplicate or more. Most experiments were reproduced to an analogous outcome at least once. In the cases where the determination of biophysical parameters involved cell assay (CP50 and IC50), reported are standard errors of the fit; otherwise, error bars are standard deviations.
RNA extracted from the gel with 300 mM NaCl were collected by ethanol precipitation followed by centrifugation (15300 g for 15 min) and dissolved in water for storage. tRNAini was aminoacylated with eFx using biotin-Phe-CME as a substrate. tRNAini (25 µM) and eFx (25 µM) were incubated with biotin-Phe-CME (5 mM) in HEPES-KOH buffer (50 mM; pH 7.5) containing 600 mM MgCl2 on ice for 2 h. The reactions were stopped with the addition of 300 mM NaOAc (pH 5.2), and precipitated with ethanol. Precipitated RNA was recovered by centrifugation (15300 g for 15 min). The pellet was washed with 70% ethanol in water (v/v) containing 100 mM NaOAc (pH 5.2) and used in translation.
2.10. Surface plasmon resonance
Binding affinities between the thiopeptides and IRAK4/TLR10 were measured with a Biacore 8K instrument (GE Healthcare) at 25 °C. The assay buffer for IRAK4 binding analysis contained 50 mM Tris (pH 7.5), 150 mM NaCl, 10 mM MgCl2, 0.05% (v/v) tween-20 and 0.1% (v/v) DMSO. The […]
Biotinylated IRAK4 was immobilized on a Biacore CAP chip (GE Healthcare) to a surface density […]
step was allowed to proceed for 480 s. Kinetic parameters and affinities of the interaction were […]
provided by the manufacturer. The interaction sensorgrams were measured as single -cycle […]
Kinetic parameters and affinities of the
Evaluation Software v.3.0 (GE Healthcare).

The target of series [4] is T1, IRAK4. The series is described as follows: mRNA display affinity selection against IRAK4, NGS abundance. The format is binding. Further details: acids 1-460; NP_057207.2) was purchased from Carna Biosciences; purchased Carna Biosciences (Kobe, Japan). To be noted: IRAK4 selection, NGS abundance rank.
The subject of another series is THP1-XBlue cells. The series is described as follows: Cell viability with Cell Counting Kit-8. To be noted: at the tested concentrations. The protocol: 2.13. NF-kB signaling pathway inhibition assay
THP-1 Cellular Assay. THP1-XBlue cells containing an NF-kB-inducible secreted embryonic alkaline phosphatase (SEAP) reporter gene (InvivoGen) were seeded to 96-well assay plates (10^5 cells/well) with RPMI 1640 culture medium containing 10% fetal calf serum. The cells were pre-treated with various concentration of analyte thiopeptide inhibitor in 0.1% DMSO and incubated at 37 °C for 6 h. LPS-EK (30 ng/mL, InvivoGen) was subsequently added to activate the NF-kB signalling for 20 h. To quantitate SEAP activity, supernatants were harvested (300 g, 5min) and mixed with Quanti-Blue (InvivoGen) detection reagent following the manufacturer’s instructions.
Cells were assayed with cell counting kit-8 in parallel to rule out potential cytotoxicity. The plates
(In general: Tetrazolium dyes change colour on reduction, which living cells bring about.)

For series [5], the target named is T3, interleukin-1 receptor-associated kinase 4 (UniProt Q9NWZ3 1-460).
T3 construct: interleukin-1 receptor-associated kinase 4 (IRAK4); also called IRAK4; IRAK4 kinase
T3 sequence (looked up): T1 sequence (Q9NWZ3 1-460)
The series is described as follows: SPR; surface plasmon resonance of synthetic thiopeptides on their target protein; conditions in S.I. 2.10 (not shown). The note with it: both partners purified. In general terms: SPR reads the build-up and loss of mass on a sensor chip optically.

Series [6] deals with T4, interleukin-1 receptor-associated kinase 4 (UniProt Q9NWZ3 1-460).
T4 sequence (looked up): T1 sequence (Q9NWZ3 1-460)
In words: cell-based or functional assay.

For the molecule `C=C1NC(=O)[C@H](Cc2c[nH]cn2)NC(=O)[C@@H]2CCCN2C(=O)[C@H](CCCNC(=N)N)NC(=O)[C@H](CCCNC(=N)N)NC(=O)[C@H](CCCNC(=N)N)NC(=O)[C@H](C)NC(=O)[C@H](Cc2c[nH]c3ccccc23)NC(=O)[C@H](Cc2ccc(O)cc2)NC(=O)[C@H](CC(C)C)NC(=O)[C@H](CO)NC(=O)[C@H](CCSC)NC(=O)[C@H](C)NC(=O)[C@H](Cc2c[nH]c3ccccc23)NC(=O)c2ccc(-c3nc(C(=O)OC)cs3)nc2-c2csc1n2` [IR11] (HELM PEPTIDE1{W.A.M.S.L.Y.W.A.R.R.R.P.H}|CHEM1{[C=C(N[*:2])c1nc(-c2nc(-c3nc(C(=O)OC)cs3)ccc2C(=O)[*:1])cs1]}$PEPTIDE1,CHEM1,1:R1-1:R1|PEPTIDE1,CHEM1,13:R2-1:R2$$$V2.0), in the series “Serum stability assay”, the “serum stability τ1/2” value was 0.5 h and the half-life at 10 µM is 30 ± 2.4 min. In addition, the IC50 on IRAK4 [1] came to 4.1 ± 0.3 µM. Besides, the “display P/N ratio” value at IRAK4 [2] amounted to 1072. Moreover, the koff in series [3] (SPR, IRAK4, read-out: koff) worked out at 0.0021 s⁻¹. Moreover, the on-rate (kon) in series [3] (SPR, IRAK4, read-out: kon) stood at 783 M⁻¹ s⁻¹. Moreover, at IRAK4 [4], the “rank in pulldown(+)” value worked out at 30 and the “rank in pulldown(–)” value is 15.

In the case of `C=C1NC(=O)[C@H](CCCCN)NC(=O)[C@H](Cc2c[nH]c3ccccc23)NC(=O)[C@H]([C@@H](C)O)NC(=O)[C@H](CCCNC(=N)N)NC(=O)[C@H](CCCNC(=N)N)NC(=O)[C@H](CCCCN)NC(=O)[C@H](Cc2c[nH]c3ccccc23)NC(=O)[C@H](CCCC(N)=O)NC(=O)[C@H](CC(C)C)NC(=O)[C@H]([C@@H](C)O)NC(=O)[C@H](Cc2c[nH]c3ccccc23)NC(=O)c2ccc(-c3nc(C(=O)OC)cs3)nc2-c2csc1n2` [IR8] (HELM PEPTIDE1{W.T.L.[O=C([C@H](CCCC(=O)[*:3])N[*:1])[*:2]].W.K.R.R.T.W.K}|PEPTIDE2{[am]}|CHEM1{[C=C(N[*:2])c1nc(-c2nc(-c3nc(C(=O)OC)cs3)ccc2C(=O)[*:1])cs1]}$PEPTIDE1,PEPTIDE2,4:R3-1:R1|PEPTIDE1,CHEM1,1:R1-1:R1|PEPTIDE1,CHEM1,11:R2-1:R2$$$V2.0; bridges inferred), in the series “Serum stability assay”, the half-life at 10 µM was 42 ± 4.8 min. Besides, the “display P/N ratio” value on IRAK4 [2] worked out at 152. In series [3], the off-rate (koff) was 0.027 s⁻¹ and the kon was determined as 1.24e+06 M⁻¹ s⁻¹. For the same molecule, at IRAK4 [4], the “rank in pulldown(+)” value is given as 9 and the “rank in pulldown(–)” value came out at 9.

Consider `CC[C@@H]1[C@H](F)C(=O)N[C@@H]1COc1nccc2cc(C(N)=O)c(OC)cc12` [PF-06650833, 1-{[(2S,3S,4S)-3-Ethyl-4-fluoro-5-oxopyrrolidin-2-yl]methoxy}-7-methoxyisoquinoline-6-carboxamide, reference compound], for which, in the series with THP1-XBlue cells, the “cytotoxicity (Cell Counting Kit-8)” value is “not cytotoxic”.

B1: thiopeptide IR11 (synthetic) (peptide)
chain: SWAMSLYWARRRPHSCSC
modifications: bridge (positions not given here) via pyridine‑bisazole; reading uncertain; also: macrocycle closed through pyridine-bisazole moiety, oxazole to thiazole change
The molecule B1 returned an equilibrium dissociation constant (Kd) in series [5] of 2.7 µM.

B2: thiopeptide IR1 (synthetic) (peptide)
chain: SWS[Nle]KRQFITWHW[Dhb]SCSC
modifications: bridge (positions not given here) via pyridine‑bisazole; not fully specified; reading uncertain; also: dehydroamino acids, macrocycle with pyridine-bisazole moiety, oxazole to thiazole mutation
Regarding B2, the “IC50, lipopolysaccharide-induced NF-κB signaling (secreted alkaline phosphatase reporter) in THP1-XBlue monocytes” value in series [6] came to 7 µM.

B3: thiopeptide IR1 (synthetic) (peptide)
chain: SWS[Nle]KRQFITWHW[Dhb]SCSC
modifications: bridge (positions not given here) via pyridine‑bisazole; reading uncertain; also: macrocycle closed through pyridine-bisazole moiety, oxazole to thiazole change
B3: in series [5], the Kd came out at 0.23 µM.

B4: thiopeptide IR8 (synthetic) (peptide)
chain: SWTL[hGln]WKRRTWKSCSC
modifications: bridge (positions not given here) via pyridine‑bisazole; reading uncertain; also: macrocycle closed through a pyridine-bisazole moiety, oxazole to thiazole change
B4 came in with a Kd in series [5] of 0.022 µM. Against the preceding molecule, the Kd is about 10-fold lower.

By IC50 is commonly meant the concentration that inhibits the measured activity by half. By koff is commonly meant the rate constant with which the complex falls apart. As usually defined, the kon is a measure of how fast the partners come together. As usually defined, the Kd is the concentration at which binding is half-saturated. The low end stands for a tighter complex, the high end for a looser complex.
